Experiments:
Experiment in all cases: relative viability (nuclei count vs DMSO), 5 days (fraction); higher = more cells survive
Sulindac + Vorinostat = compound: CC1=C(CC(=O)O)c2cc(F)ccc2/C1=C\c1ccc([S+](C)[O-])cc1 [Sulindac] + O=C(CCCCCCC(=O)Nc1ccccc1)NO [Vorinostat] (partner 1 µM)
How it was run: (§1)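 Nuclei were stained with Hoechst during a one-step fixation (final 0.05% Triton X-100, 1% formaldehyde, 1 ug/ml Hoechst) carried out 5 days after dosing, then counted on 4× images. The cells, lung cancer lines in 1536-well plates, had been dosed by pin tool the day after seeding with one drug alone or a fixed anchor-drug dose plus five library-drug doses (not always all listed) in √10 steps. Relative viability is the nuclei count in treated wells divided by that in vehicle wells, and each value is the median of duplicate plates.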

[1] = compound: O=c1[nH]cc(F)c(=O)[nH]1 [5-Fluorouracil] + O=C(c1cc(Cc2n[nH]c(=O)c3ccccc23)ccc1F)N1CCN(C(=O)C2CC2)CC1 [Olaparib] (partner 8 µM)
How it was run: as §1

Sulindac + Crizotinib = compound: CC1=C(CC(=O)O)c2cc(F)ccc2/C1=C\c1ccc([S+](C)[O-])cc1 [Sulindac] + C[C@@H](Oc1cc(-c2cnn(C3CCNCC3)c2)cnc1N)c1c(Cl)ccc(F)c1Cl [Crizotinib] (partner 1 µM)
How it was run: as §1

[2] = compound: O=c1[nH]cc(F)c(=O)[nH]1 [5-Fluorouracil] + CC1(C)CCC(c2ccc(Cl)cc2)=C(CN2CCN(c3ccc(C(=O)NS(=O)(=O)c4ccc(N[C@H](CCN5CCOCC5)CSc5ccccc5)c(S(=O)(=O)C(F)(F)F)c4)cc3)CC2)C1 [Navitoclax] (partner 0.5 µM)
How it was run: as §1

Cell Line: NCI-H522
- relative viability (Sulindac + Vorinostat; first compound 0.08 µM): 0.673
- relative viability (Sulindac + Vorinostat; first compound 0.253 µM): 0.829
- relative viability (Sulindac + Vorinostat; first compound 0.8 µM): 0.747
- relative viability (Sulindac + Vorinostat; first compound 2.53 µM): 0.906
- relative viability (Sulindac + Vorinostat; first compound 8 µM): 0.964
- relative viability ([1]; first compound 0.02 µM): 0.547
- relative viability ([1]; first compound 0.2 µM): 0.618
- relative viability ([1]; first compound 0.6325 µM): 0.647
- relative viability ([1]; first compound 2 µM): 0.621

Cell Line: NCI-H1944
- relative viability (Sulindac + Crizotinib; first compound 0.08 µM): 0.972
- relative viability (Sulindac + Crizotinib; first compound 0.253 µM): 1.29
- relative viability (Sulindac + Crizotinib; first compound 0.8 µM): 0.826
- relative viability (Sulindac + Crizotinib; first compound 2.53 µM): 0.952
- relative viability (Sulindac + Crizotinib; first compound 8 µM): 1.24
- relative viability (Sulindac + Vorinostat; first compound 0.08 µM): 0.604
- relative viability (Sulindac + Vorinostat; first compound 0.253 µM): 0.62
- relative viability (Sulindac + Vorinostat; first compound 0.8 µM): 0.506
- relative viability (Sulindac + Vorinostat; first compound 2.53 µM): 0.574
- relative viability (Sulindac + Vorinostat; first compound 8 µM): 0.571
- relative viability ([2]; first compound 0.02 µM): 0.926
- relative viability ([2]; first compound 0.2 µM): 0.862
- relative viability ([2]; first compound 0.6325 µM): 0.331
- relative viability ([2]; first compound 2 µM): 0.24
- relative viability ([1]; first compound 0.02 µM): 0.389
- relative viability ([1]; first compound 0.2 µM): 0.379
- relative viability ([1]; first compound 0.6325 µM): 0.298
- relative viability ([1]; first compound 2 µM): 0.187

Cell Line: PC-14
- relative viability (Sulindac + Crizotinib; first compound 0.08 µM): 0.942
- relative viability (Sulindac + Crizotinib; first compound 0.253 µM): 0.891
- relative viability (Sulindac + Crizotinib; first compound 0.8 µM): 0.726
- relative viability (Sulindac + Crizotinib; first compound 2.53 µM): 0.911
- relative viability (Sulindac + Crizotinib; first compound 8 µM): 1.02
- relative viability (Sulindac + Vorinostat; first compound 0.08 µM): 0.873
- relative viability (Sulindac + Vorinostat; first compound 0.253 µM): 0.9
- relative viability (Sulindac + Vorinostat; first compound 0.8 µM): 0.629
- relative viability (Sulindac + Vorinostat; first compound 2.53 µM): 0.645
- relative viability (Sulindac + Vorinostat; first compound 8 µM): 0.855
- relative viability ([2]; first compound 0.02 µM): 1.13
- relative viability ([2]; first compound 0.2 µM): 1.05
- relative viability ([2]; first compound 0.6325 µM): 0.791
- relative viability ([2]; first compound 2 µM): 0.499
- relative viability ([1]; first compound 0.02 µM): 0.277
- relative viability ([1]; first compound 0.2 µM): 0.265
- relative viability ([1]; first compound 0.6325 µM): 0.304
- relative viability ([1]; first compound 2 µM): 0.179

Cell Line: NCI-H1650
- relative viability (Sulindac + Crizotinib; first compound 0.08 µM): 1.17
- relative viability (Sulindac + Crizotinib; first compound 0.253 µM): 0.878
- relative viability (Sulindac + Crizotinib; first compound 0.8 µM): 0.912
- relative viability (Sulindac + Crizotinib; first compound 2.53 µM): 0.979
- relative viability (Sulindac + Crizotinib; first compound 8 µM): 1.02
- relative viability (Sulindac + Vorinostat; first compound 0.08 µM): 0.586
- relative viability (Sulindac + Vorinostat; first compound 0.253 µM): 0.54
- relative viability (Sulindac + Vorinostat; first compound 0.8 µM): 0.605
- relative viability (Sulindac + Vorinostat; first compound 2.53 µM): 0.486
- relative viability (Sulindac + Vorinostat; first compound 8 µM): 0.557
- relative viability ([2]; first compound 0.02 µM): 1.29
- relative viability ([2]; first compound 0.2 µM): 0.82
- relative viability ([2]; first compound 0.6325 µM): 0.63
- relative viability ([2]; first compound 2 µM): 0.294
- relative viability ([1]; first compound 0.02 µM): 0.797
- relative viability ([1]; first compound 0.2 µM): 0.754
- relative viability ([1]; first compound 0.6325 µM): 0.381
- relative viability ([1]; first compound 2 µM): 0.229

Cell Line: HCC-827
- relative viability (Sulindac + Crizotinib; first compound 0.08 µM): 0.927
- relative viability (Sulindac + Crizotinib; first compound 0.253 µM): 0.98
- relative viability (Sulindac + Crizotinib; first compound 0.8 µM): 0.942
- relative viability (Sulindac + Crizotinib; first compound 2.53 µM): 0.914
- relative viability (Sulindac + Crizotinib; first compound 8 µM): 0.956
- relative viability (Sulindac + Vorinostat; first compound 0.08 µM): 0.908
- relative viability (Sulindac + Vorinostat; first compound 0.253 µM): 0.935
- relative viability (Sulindac + Vorinostat; first compound 0.8 µM): 0.743
- relative viability (Sulindac + Vorinostat; first compound 2.53 µM): 0.805
- relative viability (Sulindac + Vorinostat; first compound 8 µM): 0.88
- relative viability ([2]; first compound 0.02 µM): 0.969
- relative viability ([2]; first compound 0.2 µM): 1
- relative viability ([2]; first compound 0.6325 µM): 0.592
- relative viability ([2]; first compound 2 µM): 0.382
- relative viability ([1]; first compound 0.02 µM): 0.336
- relative viability ([1]; first compound 0.2 µM): 0.647
- relative viability ([1]; first compound 0.6325 µM): 0.552
- relative viability ([1]; first compound 2 µM): 0.304

Cell Line: HCC-366
- relative viability (Sulindac + Crizotinib; first compound 0.08 µM): 0.378
- relative viability (Sulindac + Crizotinib; first compound 0.253 µM): 0.599
- relative viability (Sulindac + Crizotinib; first compound 0.8 µM): 0.446
- relative viability (Sulindac + Crizotinib; first compound 2.53 µM): 0.497
- relative viability (Sulindac + Crizotinib; first compound 8 µM): 0.729
- relative viability (Sulindac + Vorinostat; first compound 0.08 µM): 0.365
- relative viability (Sulindac + Vorinostat; first compound 0.253 µM): 0.333
- relative viability (Sulindac + Vorinostat; first compound 2.53 µM): 0.351
- relative viability (Sulindac + Vorinostat; first compound 8 µM): 0.416
- relative viability ([2]; first compound 0.02 µM): 1.19
- relative viability ([2]; first compound 0.2 µM): 0.992
- relative viability ([2]; first compound 0.6325 µM): 0.545
- relative viability ([2]; first compound 2 µM): 0.125
- relative viability ([1]; first compound 0.02 µM): 0.387
- relative viability ([1]; first compound 0.2 µM): 0.397
- relative viability ([1]; first compound 0.6325 µM): 0.199
- relative viability ([1]; first compound 2 µM): 0.0788

Cell Line: HARA
- relative viability (Sulindac + Crizotinib; first compound 0.08 µM): 1.1
- relative viability (Sulindac + Crizotinib; first compound 0.253 µM): 1.29
- relative viability (Sulindac + Crizotinib; first compound 2.53 µM): 1.21
- relative viability (Sulindac + Crizotinib; first compound 8 µM): 1.07
- relative viability (Sulindac + Vorinostat; first compound 0.08 µM): 0.474
- relative viability (Sulindac + Vorinostat; first compound 0.253 µM): 0.675
- relative viability (Sulindac + Vorinostat; first compound 0.8 µM): 0.425
- relative viability (Sulindac + Vorinostat; first compound 2.53 µM): 0.512
- relative viability (Sulindac + Vorinostat; first compound 8 µM): 0.461
- relative viability ([2]; first compound 0.02 µM): 1.12
- relative viability ([2]; first compound 0.2 µM): 1.15
- relative viability ([2]; first compound 0.6325 µM): 1.11
- relative viability ([2]; first compound 2 µM): 1.15
- relative viability ([1]; first compound 0.02 µM): 0.775
- relative viability ([1]; first compound 0.2 µM): 1.01
- relative viability ([1]; first compound 0.6325 µM): 0.623
- relative viability ([1]; first compound 2 µM): 0.845

Cell Line: NCI-H441
- relative viability (Sulindac + Crizotinib; first compound 0.08 µM): 0.709
- relative viability (Sulindac + Crizotinib; first compound 0.253 µM): 0.719
- relative viability (Sulindac + Crizotinib; first compound 0.8 µM): 0.626
- relative viability (Sulindac + Crizotinib; first compound 2.53 µM): 0.651
- relative viability (Sulindac + Crizotinib; first compound 8 µM): 0.946
- relative viability (Sulindac + Vorinostat; first compound 0.08 µM): 1.02
- relative viability (Sulindac + Vorinostat; first compound 0.253 µM): 0.936
- relative viability (Sulindac + Vorinostat; first compound 0.8 µM): 0.599
- relative viability (Sulindac + Vorinostat; first compound 2.53 µM): 0.782
- relative viability (Sulindac + Vorinostat; first compound 8 µM): 0.981
- relative viability ([2]; first compound 0.02 µM): 1
- relative viability ([2]; first compound 0.2 µM): 0.502
- relative viability ([2]; first compound 0.6325 µM): 0.507
- relative viability ([2]; first compound 2 µM): 0.409
- relative viability ([1]; first compound 0.02 µM): 0.514
- relative viability ([1]; first compound 0.2 µM): 0.438
- relative viability ([1]; first compound 0.6325 µM): 0.292
- relative viability ([1]; first compound 2 µM): 0.269

Cell Line: LXF-289
- relative viability (Sulindac + Crizotinib; first compound 0.08 µM): 0.844
- relative viability (Sulindac + Crizotinib; first compound 0.253 µM): 0.868
- relative viability (Sulindac + Crizotinib; first compound 0.8 µM): 0.776
- relative viability (Sulindac + Crizotinib; first compound 2.53 µM): 0.85
- relative viability (Sulindac + Crizotinib; first compound 8 µM): 0.855
- relative viability (Sulindac + Vorinostat; first compound 0.08 µM): 0.867
- relative viability (Sulindac + Vorinostat; first compound 0.253 µM): 0.797
- relative viability (Sulindac + Vorinostat; first compound 0.8 µM): 0.636
- relative viability (Sulindac + Vorinostat; first compound 2.53 µM): 0.83
- relative viability (Sulindac + Vorinostat; first compound 8 µM): 0.797
- relative viability ([2]; first compound 0.02 µM): 0.881
- relative viability ([2]; first compound 0.2 µM): 0.625
- relative viability ([2]; first compound 0.6325 µM): 0.387
- relative viability ([2]; first compound 2 µM): 0.283
- relative viability ([1]; first compound 0.02 µM): 1.05
- relative viability ([1]; first compound 0.2 µM): 0.778
- relative viability ([1]; first compound 0.6325 µM): 0.439
- relative viability ([1]; first compound 2 µM): 0.334
